For the assay, the system named is CEM cells HIV-1 protection, formazan growth assay. Briefly: NCI AIDS Antiviral Assay. The conditions noted are these: for IC50: measured here: growth of uninfected CEM cells. An outline of the steps: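 Human CEM cells, uninfected and HIV-1-infected, received five drug concentrations, and growth was read by soluble formazan assay. Compounds giving at least 50% protection were retested; reproducible 100% protection defined confirmed active.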

Experimental findings from PubChem BioAssay AID179 (DTP/NCI, 2004) are described below.

Structures are written as SMILES. The source made the active and inactive calls.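 Rule for the calls: active = compounds giving half or more protection of infected cells from virus-caused growth loss, again on retest; inactive = the rest.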 Where a SMILES comes first, the peptide text is derived from it. The star is where a group is joined. Boc = CC(C)(C)OC(=O)*; OSu = O=C1CCC(=O)N1O*; OBn = c1ccc(CO*)cc1 Some results are limits rather than exact numbers.

Consider `CC12CCCCC1C(=O)C2(Cl)Cl` (stereo unspecified), for which the result was inactive.
For the molecule `CC(C)(C)CNC(=O)NCn1cc(-c2ccccc2)nn1`, the EC50 – broadly, the concentration at which the effect is half-maximal – was more than 200 µM and the IC50 (in general, the concentration that inhibits the measured activity by half) is more than 200 µM.
In the case of `CSC1NC(c2ccccc2)=C(C#N)C(=O)N1C1OCC(OC(C)=O)C(OC(C)=O)C1OC(C)=O` (stereo unspecified), the EC50 was more than 200 µM and the IC50 came out at 148 µM.
Take `NCCCCC(NC(=O)C(N)Cc1ccc(O)cc1)C(=O)NC(Cc1ccc(O)cc1)C(=O)NC(CCCCN)C(=O)ON1C(=O)CCC1=O` (stereo unspecified) (H-YKYK-OSu; configuration not given here): the EC50 is more than 200 µM and the IC50 was more than 200 µM.
As for `CC(=O)Nc1cc2ccc(C)nc2c2nc(C)ccc12.CC(=O)Nc1cc2ccc(C)nc2c2nc(C)ccc12.O=C1OC(C(O)C[O-])C(O)=C1O.[Cu+]`, the EC50 is more than 12.6 µM and the IC50 amounted to 2.09 µM.
For `CCCCCCCCCCCCCCCC=C(c1cc(Br)c(OC)c(C(=O)OC)c1)c1cc(Br)c(OC)c(C(=O)OC)c1`, in that order: more than 27.5 µM and more than 27.5 µM.
For `CC1(C)CCC(C)(C)c2cc(NC(=O)c3ccc(C(=O)O)cc3)ccc21`, in that order: more than 200 µM and 95.5 µM.
The corresponding values for `Clc1ccc(C(Cc2cccc(Cl)c2)c2c(Cl)nc(N3CCNCC3)nc2Cl)cc1` (stereo unspecified) are more than 200 µM and 17.4 µM.
As for `O=c1[nH]nnc2c1sc1ncccc12`, the EC50 was more than 200 µM and the IC50 was more than 200 µM.
Take `CC(NC(=O)C(C)NC(=O)C(CC(N)=O)NC(=O)CN)C(=O)NC(CO)C(=O)NC(C)C(=O)NC(CCCN=C(N)N)C(=O)NC(CCCN=C(N)N)C(N)=O` (stereo unspecified) (H-GNAASARR-NH2; configuration not given here): the outcome was inactive.
`Cc1ccc2nc(-c3ccc(C(C)(C)C)cc3)oc(=O)c2c1`: the EC50 is more than 200 µM and the IC50 was 23.4 µM.
As to `COc1ccc(-c2cc(-c3ccccc3)c3ccccc3n2)c(OC)c1OC`, the EC50 is more than 200 µM and the IC50 is more than 200 µM.
Regarding `CCc1nc2ccc(N=NN(C)C)cc2[nH]1`, the EC50 is 85.1 µM and the IC50 stood at 107 µM.
For `Nc1cc2c3c(c1)Oc1cc(N)cc4c1C3c1c(cc(N)cc1O4)O2`, the EC50 was more than 30.9 µM and the IC50 is 23.4 µM.
For `S=C1NC2=C(CSC/C2=C\c2ccc(Cl)cc2)C(c2ccc(Cl)cc2)N1` (stereo unspecified), in that order: more than 200 µM and 15.8 µM.
For `N/C(=N/N=C/C1CCCCC1)NO`, the outcome was inactive.
As for `COC(=O)N1CC2C3C4CC(C(c5ccccc5)=C4c4ccccc4)C3C21` (stereo unspecified), the EC50 is more than 200 µM and the IC50 was 29.5 µM.
The corresponding values for `CCCCn1cnc2c(SSc3ncnc4c3ncn4CCCC)ncnc21` are more than 200 µM and 10.7 µM.
For `Cc1[nH]c(=O)nc(CC(O)(c2ccccc2)c2ccccc2)c1-c1ccccc1`, in that order: more than 2.75 µM and more than 2.75 µM.
The corresponding values for `O=C(CCc1ccccc1)CC1OC(=O)C(Cl)=C1Cl` (stereo unspecified) are more than 33.1 µM and more than 33.1 µM.
As to `CCCSP(SCCC)SCCC`, the outcome was inactive.
For `COC(=O)c1ccc(Cc2ccc(C(=O)OC)o2)o1`, the EC50 was more than 191 µM and the half-maximal inhibitory concentration (IC50) was more than 191 µM.
`CCC(C#N)NCc1ccc(CNC(C#N)CC)cc1` (stereo unspecified): the EC50 was more than 200 µM and the IC50 was more than 200 µM.
In the case of `CN(CCN(C)CC(=O)O)CC(=O)O`, the EC50 is more than 617 µM and the IC50 stood at 550 µM.
Consider `Cc1ccc(S(=O)(=O)OC2C3C=CC2C2CSCC32)cc1` (stereo unspecified), for which the EC50 was more than 100 µM and the IC50 was more than 100 µM.
In the case of `Cc1cc(NS(=O)(=O)c2ccc(N=Nc3c(Nc4ccccc4)nn(-c4ccc(S(=O)(=O)Nc5ccncn5)cc4)c3C)cc2)no1`, the EC50 was more than 200 µM and the IC50 was more than 200 µM.
Take `C#CCOC(=O)C(=[N+]=[N-])C(=O)CC(C)C`: the EC50 is more than 200 µM and the IC50 is more than 200 µM.
As to `CC1=C[C@H](C[C@]2(C)c3c(c4c(C)cccc4oc3=O)O[C@@H]2C)OC1=O`, the EC50 is more than 200 µM and the IC50 was 26.9 µM.
The corresponding values for `C=C1C(O)O[C@@H]2O[C@@]3(C)CC[C@H]4[C@H](C)CCC1[C@@]24O3` (stereo partly specified) are more than 200 µM and 95.5 µM.
For `CC1(C)SCc2nc3ccccc3n21`, in that order: more than 200 µM and 186 µM.
In the case of `Cn1cnc([N+](=O)[O-])c1Sc1nc(N)nc2nc[nH]c12`, the EC50 was more than 200 µM and the IC50 is 3.39 µM.
On to `O=C1/C(=C/c2cccc(Cl)c2)CCc2ccccc21`, for which the EC50 is more than 10 µM and the IC50 was more than 10 µM.
With `CCCCCCCCCCCc1cc(=O)c2c(O)cccc2o1`, the EC50 is more than 14.8 µM and the IC50 is more than 14.8 µM.
In the case of `Cc1cc(=O)oc2cc(O/C(=C\c3ccc(O)cc3)c3nc4ccccc4c(=O)o3)ccc12`, the EC50 was more than 22.9 µM and the IC50 was more than 22.9 µM.
`Cc1cn(CC(=O)NCCO)c(=O)[nH]c1=O`: the EC50 was more than 200 µM and the IC50 is more than 200 µM.
`CC(C)=Cc1cc(C(=O)NCCNC(=O)c2cc(C=C(C)C)nc(NC#N)n2)nc(NC#N)n1`: the EC50 was more than 5.89 µM and the IC50 was more than 5.89 µM.
On to `CCOC(=O)C1Cc2[nH]c3ccccc3c2C(C)C1C` (stereo unspecified), for which the EC50 was more than 95.5 µM and the IC50 stood at 49 µM.
The corresponding values for `NC(C(=O)O)/C1=C/CCCCCC1` (stereo unspecified) are more than 200 µM and more than 200 µM.
For `CC(C)OC(=S)Nc1ccc(Cl)c(/C=N/OC(C)(C)C)c1`, in that order: more than 24 µM and 23.4 µM.
For the molecule `Brc1ccc(-c2ccc(-c3ccc(Br)s3)s2)s1`, the EC50 is more than 200 µM and the IC50 was more than 200 µM.
On to `CC(C)=CCOc1cc(NC(=S)c2ccsc2C)ccc1Cl`, for which the EC50 is 0.0417 µM and the IC50 came to 15.8 µM.
The corresponding values for `CC1(OCc2ccccc2)C(=O)N2C1NCC2(C)C` (stereo unspecified) are more than 251 µM and 117 µM.
With `O=C1C2CCC(N1c1ccc(F)cc1)n1c(=O)n(-c3ccccc3)c(=O)n12` (stereo unspecified), the outcome was inactive.
Regarding `CC1(C)C(=O)C(C)(C)C1=S`, the EC50 was more than 219 µM and the IC50 is more than 219 µM.
On to `CCOC(=O)/C=C1\Oc2ccccc2C1(C)O` (stereo unspecified), for which the EC50 is more than 562 µM and the half-inhibitory concentration (IC50) is more than 562 µM.
`CN(C)c1ccc(N=O)cc1`: the EC50 was more than 2 µM and the IC50 is 1.12 µM.
On to `COc1ccc(-c2sc(/N=C/c3cc(OC)c(OC)c(OC)c3)c(C#N)c2C)cc1OC`, for which the EC50 was more than 200 µM and the IC50 came to 11.2 µM.
The corresponding values for `COC(=O)C1=C(C(=O)OC)N(C(C)C)[C@H]2C(C(=O)OC)=C(C(=O)OC)N(C(C)C)[C@@H]12` are more than 2.45 µM and more than 2.45 µM.
As for `CC(C)/C(Cl)=N\OC(=O)Nc1cccc(F)c1`, the EC50 was more than 200 µM and the IC50 worked out at 9.77 µM.
With `OCC(O)C(OC1OC(CO)C(O)C(O)C1O)c1nn(-c2ccc(Cl)cc2)c2nc3cc(Cl)c(Cl)cc3nc12` (stereo unspecified), the outcome was inactive.
Same read-out and setting: the entry for `C[n+]1c2ccccc2c(NC(CS)C(=O)O)c2ccccc21` (stereo unspecified) is “inactive”; for `O=C1c2ccccc2-c2nccc3ccnc1c23` it is “inactive”.
On to `CC(=O)Oc1ccn2nc(C)c(Br)c2c1`, for which the EC50 was more than 200 µM and the IC50 was 93.3 µM.
The corresponding values for `Cc1cccc(NP2(Nc3cccc(C)c3)=NP(Nc3cccc(C)c3)(Nc3cccc(C)c3)=NP(Nc3cccc(C)c3)(Nc3cccc(C)c3)=NP(Nc3cccc(C)c3)(Nc3cccc(C)c3)=N2)c1` are more than 200 µM and more than 200 µM.
As to `CC(C)C(NC(=O)OC(C)(C)C)C(=O)N1CCCC1C(=O)OCc1ccccc1` (stereo not drawn) (Boc-Val-Pro-OBn; configuration not given here), the EC50 is more than 200 µM and the IC50 stood at 123 µM.
For `COC1=CC(=O)C=C(OC)C1=O`, in that order: more than 214 µM and 1.12 µM.
Consider `CC1(C)SC(CCCCCCCCCCCNC2=NCCCCCCCCCCC2)=N[C@@H]1C(=O)O`, for which the EC50 was more than 67.6 µM and the IC50 worked out at 38 µM.
The corresponding values for `O=C1Oc2ccccc2C(=O)/C1=C/N1C(=O)N/C(=C\c2ccccc2Br)C1=O` are more than 200 µM and 83.2 µM.
The corresponding values for `CCOC(=O)/C(=C/c1ccc(Cl)cc1)N(CC)CC` are more than 126 µM and more than 126 µM.
For `CCOC(=O)c1nc(SC)sc1NC(=O)c1ccccc1[N+](=O)[O-]`, in that order: 195 µM and more than 200 µM.
As for `Cc1ccc(SSC(=S)Nc2ccccc2)cc1`, the result was inactive.
On the same count and under the same terms, the entry for `N#Cc1nc(C(F)(F)F)oc1N` is “inactive”.
Take `O=c1scc(-c2ccc(C(F)(F)F)cc2)s1`: the EC50 was more than 85.1 µM and the IC50 is more than 85.1 µM.
For the molecule `CC(=O)Nc1ccc2[nH]c(C(=O)N3CC(CCl)c4c3cc([N+](=O)[O-])c3ccccc43)cc2c1` (stereo unspecified), the EC50 is more than 2 µM and the IC50 came to 1.7 µM.
For `CCOC(=O)c1nc2ccccc2nc1Oc1ccc(C(=O)OC)cc1`, in that order: more than 200 µM and more than 200 µM.
For `CCOP(=O)(OCC)/C(C#N)=C\c1ccccc1`, in that order: more than 355 µM and more than 355 µM.
The corresponding values for `c1ccc2c3ccn4ccc5c6ccccc6[nH]c5c4c-3nc2c1` are more than 10 µM and 0.513 µM.
Regarding `COc1ccc(CNc2cnc3cc(N)ccc3n2)cc1`, the EC50 is more than 67.6 µM and the IC50 is more than 67.6 µM.
As to `Cc1ccc2c(ccc(/C=C/c3ccc(O)c4ncccc34)[n+]2C)c1`, the EC50 is more than 28.8 µM and the IC50 turned out to be 5.89 µM.
For `CC1C2CC(CC2O)C1(C)C` (stereo unspecified), in that order: more than 1620 µM and more than 1620 µM.
As to `CC(C)(O)/C=C\P(=O)(O)O`, the EC50 was more than 200 µM and the IC50 is more than 200 µM.
For the molecule `CCN1CCCCC(=N\O)/C(=N/O)CCCC1`, the EC50 is more than 741 µM and the IC50 was more than 741 µM.
For `N/N=C1/CCN2CCCc3cccc1c32`, the EC50 is more than 200 µM and the IC50 was 182 µM.
